test: Activation of NQO1 in human A549 cells assessed as decrease in cell survival incubated for 2 hrs measured after 7 days in presence of NQO1 inhibitor dicoumarol by Hoechst 33258 staining based assay

SMILES | IC50 [µM]
CC1(C)OC2=C(C(=O)C(=O)c3ccccc32)C1Nc1cccc(-c2cn(C[Se]c3ccccc3)nn2)c1 (centres undefined) | > 3.2
CC1(C)OC2=C(C(=O)C(=O)c3ccccc32)C1Nc1ccc([N+](=O)[O-])cc1 (centres undefined) | > 3.2
CC1(C)OC2=C(C(=O)C(=O)c3ccccc32)C1Nc1cccc([N+](=O)[O-])c1 (centres undefined) | > 3.2
CC1(C)OC2=C(C(=O)C(=O)c3ccccc32)C1Nc1ccc(F)c([N+](=O)[O-])c1 (centres undefined) | > 3.2

Source: BindingDB's records for doi:10.1016/j.ejmech.2016.06.019 (Federal University of Minas Gerais, 2016)
